From PubChem BioAssay AID248 (DTP/NCI, 2004)
Values joined by “and” are separate entries in the source; they are usually repeats but may differ in a detail not shown here. Equal values may be shown once. Inconclusive results and toxic doses are left out. No stated cut-off is given here; in the data, active means T/C of 150% or more; inactive means T/C below 125%.

Tested on: L1210 leukemia ip in BDF1 mice, survival T/C
Assay: NCI In Vivo Anticancer Drug Screen. Data for tumor model L1210 Leukemia (intraperitoneal) in B6D2F1 (BDF1) mice
Conditions: endpoint: mean survival time, higher = longer survival
How it was run: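 Read-out is survival time, reported as the treated-group measurement over the vehicle-control measurement.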

Measured: T/C

CC(=O)OC1CC2c3ccccc3C1c1cccc[n+]12 (stereo not drawn)
inactive: dose: 12.5 mg/kg/injection, schedule: Q01DX001 (ip), vehicle: Klucel (hydroxypropylcellulose) (HPC) 97 % of control | dose: 12.5 mg/kg/injection, schedule: Q01DX009 (ip), vehicle: Klucel (hydroxypropylcellulose) (HPC) 100 % of control | dose: 25.0 mg/kg/injection, schedule: Q01DX001 (ip), vehicle: Klucel (hydroxypropylcellulose) (HPC) 101 % of control | dose: 25.0 mg/kg/injection, schedule: Q01DX009 (ip), vehicle: Klucel (hydroxypropylcellulose) (HPC) 102 % of control | dose: 25.0 mg/kg/injection, schedule: Q04DX003 (ip), vehicle: Klucel (hydroxypropylcellulose) (HPC) 101 % of control | dose: 50.0 mg/kg/injection, schedule: Q01DX001 (ip), vehicle: Klucel (hydroxypropylcellulose) (HPC) 105 % of control | dose: 50.0 mg/kg/injection, schedule: Q01DX009 (ip), vehicle: Klucel (hydroxypropylcellulose) (HPC) 104 % of control | dose: 50.0 mg/kg/injection, schedule: Q04DX003 (ip), vehicle: Klucel (hydroxypropylcellulose) (HPC) 94 % of control | dose: 75.0 mg/kg/injection, schedule: Q01DX009 (ip), vehicle: Klucel (hydroxypropylcellulose) (HPC) 88 % of control | dose: 100.0 mg/kg/injection, schedule: Q01DX001 (ip), vehicle: Klucel (hydroxypropylcellulose) (HPC) 101 % of control

O=[N+]([O-])c1ccc(-c2ccc(-c3ccccc3)cc2)cc1
inactive: dose: 100.0 mg/kg/injection, schedule: Q01DX001 (ip), vehicle: acetone 98 % of control | dose: 100.0 mg/kg/injection, schedule: Q04DX003 (ip), vehicle: acetone 91 % of control | dose: 200.0 mg/kg/injection, schedule: Q01DX001 (ip), vehicle: acetone 95 % of control | dose: 200.0 mg/kg/injection, schedule: Q04DX003 (ip), vehicle: acetone 86 % of control | dose: 400.0 mg/kg/injection, schedule: Q01DX001 (ip), vehicle: acetone 92 % of control | dose: 400.0 mg/kg/injection, schedule: Q04DX003 (ip), vehicle: acetone 89 % of control

COc1cc(Nc2ncnc(N)c2[N+](=O)[O-])cc(OC)c1OC
inactive: dose: 200.0 mg/kg/injection, schedule: Q04DX003 (ip), vehicle: saline with Tween-80 88 % of control

CC(NC(=O)NCCCl)C(O)c1ccccc1 (stereo not drawn)
inactive: dose: 20.0 mg/kg/injection, schedule: Q04DX003 (ip), vehicle: Klucel (hydroxypropylcellulose) (HPC) 103 % of control | dose: 40.0 mg/kg/injection, schedule: Q04DX003 (ip), vehicle: Klucel (hydroxypropylcellulose) (HPC) 96 % of control | dose: 80.0 mg/kg/injection, schedule: Q04DX003 (ip), vehicle: Klucel (hydroxypropylcellulose) (HPC) 102 % of control | dose: 100.0 mg/kg/injection, schedule: Q04DX003 (ip), vehicle: Klucel (hydroxypropylcellulose) (HPC) 100 % of control

O=c1[nH]c(=O)n(C2CC(O)C(CO)O2)cc1I (stereo not drawn)
active: dose: 150.0 mg/kg/injection, schedule: Q01DX009 (ip), vehicle: carboxymethylcellulose (CMC) 167 % of control | dose: 300.0 mg/kg/injection, schedule: Q01DX005 (ip), vehicle: carboxymethylcellulose (CMC) 151 % of control | dose: 304.0 mg/kg/injection, schedule: Q## X024 (ip), vehicle: carboxymethylcellulose (CMC) 150 % of control | dose: 500.0 mg/kg/injection, schedule: Q#A X Z (ip), vehicle: other 152 % of control | dose: 600.0 mg/kg/injection, schedule: Q## X002 (ip), vehicle: carboxymethylcellulose (CMC) 158 % of control | dose: 600.0 mg/kg/injection, schedule: Q## X003 (ip), vehicle: carboxymethylcellulose (CMC) 170 % of control | dose: 600.0 mg/kg/injection, schedule: Q## X016 (ip), vehicle: carboxymethylcellulose (CMC) 158 % of control | dose: 600.0 mg/kg/injection, schedule: Q## X024 (ip), vehicle: carboxymethylcellulose (CMC) 182 % of control | dose: 900.0 mg/kg/injection, schedule: Q01DX Z (ip), vehicle: saline 164 % of control | dose: 1200.0 mg/kg/injection, schedule: Q01DX001 (ip), vehicle: carboxymethylcellulose (CMC) 161 % of control | dose: 1200.0 mg/kg/injection, schedule: Q## X002 (ip), vehicle: carboxymethylcellulose (CMC) 187 % of control | dose: 1200.0 mg/kg/injection, schedule: Q## X003 (ip), vehicle: carboxymethylcellulose (CMC) 211 % of control | dose: 1200.0 mg/kg/injection, schedule: Q## X008 (ip), vehicle: carboxymethylcellulose (CMC) 157 % of control | dose: 1200.0 mg/kg/injection, schedule: Q## X016 (ip), vehicle: carboxymethylcellulose (CMC) 167 % of control | dose: 1200.0 mg/kg/injection, schedule: Q## X024 (ip), vehicle: carboxymethylcellulose (CMC) 160 % of control | dose: 2400.0 mg/kg/injection, schedule: Q01DX001 (ip), vehicle: carboxymethylcellulose (CMC) 175 % of control | dose: 2400.0 mg/kg/injection, schedule: Q## X002 (ip), vehicle: carboxymethylcellulose (CMC) 161 % of control | dose: 2400.0 mg/kg/injection, schedule: Q## X008 (ip), vehicle: carboxymethylcellulose (CMC) 188 % of control | dose: 2400.0 mg/kg/injection, schedule: Q## X016 (ip), vehicle: carboxymethylcellulose (CMC) 232 % of control
inactive: dose: 62.5 mg/kg/injection, schedule: Q#A X Z (ip), vehicle: other 119 % of control | dose: 125.0 mg/kg/injection, schedule: Q01DX009 (ip), vehicle: saline 103 % of control and 113 % of control | dose: 125.0 mg/kg/injection, schedule: Q01DX010 (ip), vehicle: saline 114 % of control and 117 % of control | dose: 125.0 mg/kg/injection, schedule: Q03DX Z (ip), vehicle: other 119 % of control | dose: 150.0 mg/kg/injection, schedule: Q01DX009 (ip), vehicle: saline 114 % of control | dose: 178.0 mg/kg/injection, schedule: Q01DX Z (ip), vehicle: other 124 % of control | dose: 178.0 mg/kg/injection, schedule: Q01DX Z (ip), vehicle: saline 112 % of control | dose: 250.0 mg/kg/injection, schedule: Q01DX001 (ip), vehicle: other 105 % of control and 108 % of control | dose: 250.0 mg/kg/injection, schedule: Q01DX009 (ip), vehicle: saline 111 % of control and 118 % of control | dose: 250.0 mg/kg/injection, schedule: Q01DX010 (ip), vehicle: saline 114 % of control | dose: 250.0 mg/kg/injection, schedule: Q03DX Z (ip), vehicle: other 104 % of control | dose: 250.0 mg/kg/injection, schedule: Q07DX Z (ip), vehicle: other 110 % of control | dose: 267.0 mg/kg/injection, schedule: Q01DX Z (ip), vehicle: other 116 % of control | dose: 267.0 mg/kg/injection, schedule: Q01DX Z (ip), vehicle: saline 122 % of control | dose: 300.0 mg/kg/injection, schedule: Q01DX009 (ip), vehicle: saline 121 % of control | dose: 400.0 mg/kg/injection, schedule: Q01DX Z (ip), vehicle: other 113 % of control | dose: 500.0 mg/kg/injection, schedule: Q01DX001 (ip), vehicle: other 110 % of control and 113 % of control | dose: 500.0 mg/kg/injection, schedule: Q01DX009 (ip), vehicle: saline 116 % of control and 120 % of control | dose: 500.0 mg/kg/injection, schedule: Q01DX010 (ip), vehicle: saline 111 % of control and 122 % of control | dose: 500.0 mg/kg/injection, schedule: Q03DX Z (ip), vehicle: other 116 % of control | dose: 500.0 mg/kg/injection, schedule: Q07DX Z (ip), vehicle: other 113 % of control | dose: 600.0 mg/kg/injection, schedule: Q01DX005 (ip), vehicle: carboxymethylcellulose (CMC) 107 % of control | dose: 600.0 mg/kg/injection, schedule: Q01DX009 (ip), vehicle: carboxymethylcellulose (CMC) 92 % of control | dose: 1000.0 mg/kg/injection, schedule: Q01DX001 (ip), vehicle: other 110 % of control and 116 % of control | dose: 1000.0 mg/kg/injection, schedule: Q01DX009 (ip), vehicle: saline 111 % of control and 117 % of control | dose: 1000.0 mg/kg/injection, schedule: Q01DX010 (ip), vehicle: saline 111 % of control and 124 % of control | dose: 1000.0 mg/kg/injection, schedule: Q03DX Z (ip), vehicle: other 117 % of control | dose: 1000.0 mg/kg/injection, schedule: Q07DX Z (ip), vehicle: other 105 % of control | dose: 2000.0 mg/kg/injection, schedule: Q01DX010 (ip), vehicle: saline 119 % of control | dose: 2400.0 mg/kg/injection, schedule: Q## X003 (ip), vehicle: carboxymethylcellulose (CMC) 101 % of control

C[N+]1(CCO)CC[N+](C)(CCCN2c3ccccc3Sc3ccc(Cl)cc32)CC1 (stereo not drawn)
inactive: dose: 10.0 mg/kg/injection, schedule: Q01DX001 (ip), vehicle: carboxymethylcellulose (CMC) 98 % of control | dose: 20.0 mg/kg/injection, schedule: Q01DX001 (ip), vehicle: carboxymethylcellulose (CMC) 101 % of control | dose: 40.0 mg/kg/injection, schedule: Q01DX001 (ip), vehicle: carboxymethylcellulose (CMC) 113 % of control
